Reference: PMC5664438, “The novel isoxazoline ectoparasiticide lotilaner (Credelio™): a non-competitive antagonist specific to invertebrates γ-aminobutyric acid-gated chloride channels (GABACls)” (Parasites & Vectors, 2017)
“Also recorded” adds a separate entry of the source. Read-outs that look alike come from different tables or passages of the source.

Assays:
[1] = biological target: T1, DmS-GABA (wild type GABACl, RDLac) (Drosophila melanogaster, UniProt P25123); assay: Antagonist cumulative pre-application concentration-inhibition, TEVC on oocytes expressing DmS-GABA; type: cell-based; conditions: for nH (Hill coefficient): concentration-inhibition curve
T1 construct: expressed in transfected cells; host or cells: Xenopus laevis oocytes injected with in vitro-transcribed capped cRNA (gene synthesised at Genewiz, pT7-TS vector)
T1 sequence (P25123 45-606 isoform P25123-1 limits assumed): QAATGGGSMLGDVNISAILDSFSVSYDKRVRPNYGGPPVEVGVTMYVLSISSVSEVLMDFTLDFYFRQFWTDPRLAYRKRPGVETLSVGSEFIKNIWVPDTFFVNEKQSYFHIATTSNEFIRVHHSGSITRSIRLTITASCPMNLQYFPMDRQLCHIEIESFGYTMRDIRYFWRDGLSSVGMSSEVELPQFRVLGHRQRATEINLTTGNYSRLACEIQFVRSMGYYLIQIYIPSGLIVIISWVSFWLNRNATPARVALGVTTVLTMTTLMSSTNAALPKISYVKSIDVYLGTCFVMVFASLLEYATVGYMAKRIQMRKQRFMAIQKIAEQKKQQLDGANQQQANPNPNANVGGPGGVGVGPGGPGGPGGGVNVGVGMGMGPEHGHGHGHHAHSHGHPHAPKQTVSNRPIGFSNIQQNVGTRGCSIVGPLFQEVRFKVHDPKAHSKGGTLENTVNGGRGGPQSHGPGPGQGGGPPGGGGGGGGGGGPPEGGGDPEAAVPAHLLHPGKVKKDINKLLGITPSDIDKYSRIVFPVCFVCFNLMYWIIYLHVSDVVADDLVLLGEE
Text: (§1) The agonist and the drug were then washed off for 15 s and the oocyte exposed again to the same drug concentration for 15 s before increasing to the next concentration.
In a first step, we investigated the effect of lotilaner on the very well characterized D. melanogaster GABACl.

DmS-GABA receptor [2] = biological target: T2, DmS-GABA receptor (Drosophila melanogaster, UniProt P25123); assay: Co-application protocol (GABA plus drug, no pre-incubation), TEVC on oocytes expressing DmS-GABA; conditions: GABA 1 μM + 100 nM drug
T2 sequence (P25123 45-606 isoform P25123-1 limits assumed): T1 sequence (P25123 45-606 isoform P25123-1 limits assumed)

[3] = Biological activity of the enantiomers in vivo (data not shown)
Rm-GABA [4] = biological target: T3, Rm-GABA (Rhipicephalus microplus, UniProt C8CGT5); assay: Antagonist cumulative pre-application concentration-inhibition, TEVC on oocytes expressing Rm-GABA; type: cell-based; conditions: for nH (Hill coefficient): Rm-GABA, concentration-inhibition curve
T3 sequence (C8CGT5 entry or part of it): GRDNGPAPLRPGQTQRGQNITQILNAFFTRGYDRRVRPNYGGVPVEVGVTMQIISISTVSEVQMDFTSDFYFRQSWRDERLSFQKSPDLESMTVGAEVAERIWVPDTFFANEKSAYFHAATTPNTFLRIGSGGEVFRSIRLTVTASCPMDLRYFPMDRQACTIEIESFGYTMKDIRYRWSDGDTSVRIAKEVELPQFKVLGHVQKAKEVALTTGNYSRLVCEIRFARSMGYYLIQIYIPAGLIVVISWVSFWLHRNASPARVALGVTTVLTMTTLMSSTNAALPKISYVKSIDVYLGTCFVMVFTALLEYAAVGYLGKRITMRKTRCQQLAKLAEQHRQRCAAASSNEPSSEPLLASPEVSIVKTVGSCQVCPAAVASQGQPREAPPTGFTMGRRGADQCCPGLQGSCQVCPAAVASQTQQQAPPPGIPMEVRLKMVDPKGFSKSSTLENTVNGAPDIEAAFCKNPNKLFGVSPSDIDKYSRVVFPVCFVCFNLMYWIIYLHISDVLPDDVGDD

[5] = test system: D. melanogaster S302 form; design: method as in PMID 24365472; conditions: cited from earlier work
Ls-GABA1 [6] = biological target: T4, Ls-GABA1 (Lepeophtheirus salmonis, UniProt A0A2H4NNJ4); assay: Antagonist cumulative pre-application concentration-inhibition, TEVC on oocytes expressing Ls-GABA1; type: cell-based; conditions: for nH (Hill coefficient): concentration-inhibition curve
T4 sequence (A0A2H4NNJ4 entry or part of it): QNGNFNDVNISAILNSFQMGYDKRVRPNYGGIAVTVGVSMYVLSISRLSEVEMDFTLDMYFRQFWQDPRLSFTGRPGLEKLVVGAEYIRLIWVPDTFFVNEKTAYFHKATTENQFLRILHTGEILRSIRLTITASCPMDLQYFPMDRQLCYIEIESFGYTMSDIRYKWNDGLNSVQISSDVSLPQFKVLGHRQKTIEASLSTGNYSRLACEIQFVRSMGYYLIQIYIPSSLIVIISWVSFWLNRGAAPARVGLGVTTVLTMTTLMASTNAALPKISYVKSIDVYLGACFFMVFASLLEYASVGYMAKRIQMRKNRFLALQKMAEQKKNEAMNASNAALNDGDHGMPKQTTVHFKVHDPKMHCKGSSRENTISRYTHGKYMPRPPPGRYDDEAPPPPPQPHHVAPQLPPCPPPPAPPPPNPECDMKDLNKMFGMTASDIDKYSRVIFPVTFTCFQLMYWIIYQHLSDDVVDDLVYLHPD

Cl-GABAA α1β2γ2 [7] = biological target: T5, Cl-GABAA α1β2γ2 (Canis lupus familiaris, UniProt A0A2H4NNI8+A0A2H4NNJ3+E2RSQ0); assay: GABA concentration-activation, two-electrode voltage clamp on Xenopus oocytes expressing Cl-GABAA α1β2γ2; type: cell-based
T5 sequence (E2RSQ0 entry or part of it): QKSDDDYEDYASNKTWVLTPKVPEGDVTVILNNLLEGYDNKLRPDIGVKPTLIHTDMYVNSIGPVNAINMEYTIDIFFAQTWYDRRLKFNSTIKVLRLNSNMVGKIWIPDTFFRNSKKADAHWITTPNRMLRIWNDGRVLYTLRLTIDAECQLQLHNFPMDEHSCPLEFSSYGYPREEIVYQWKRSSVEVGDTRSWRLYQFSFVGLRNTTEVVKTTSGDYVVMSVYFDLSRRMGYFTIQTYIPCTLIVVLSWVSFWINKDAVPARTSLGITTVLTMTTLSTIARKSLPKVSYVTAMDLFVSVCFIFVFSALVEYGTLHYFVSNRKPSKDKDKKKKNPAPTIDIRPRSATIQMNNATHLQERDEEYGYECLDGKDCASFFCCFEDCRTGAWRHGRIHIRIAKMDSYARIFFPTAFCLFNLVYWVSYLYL
T5 sequence (A0A2H4NNJ3 entry or part of it): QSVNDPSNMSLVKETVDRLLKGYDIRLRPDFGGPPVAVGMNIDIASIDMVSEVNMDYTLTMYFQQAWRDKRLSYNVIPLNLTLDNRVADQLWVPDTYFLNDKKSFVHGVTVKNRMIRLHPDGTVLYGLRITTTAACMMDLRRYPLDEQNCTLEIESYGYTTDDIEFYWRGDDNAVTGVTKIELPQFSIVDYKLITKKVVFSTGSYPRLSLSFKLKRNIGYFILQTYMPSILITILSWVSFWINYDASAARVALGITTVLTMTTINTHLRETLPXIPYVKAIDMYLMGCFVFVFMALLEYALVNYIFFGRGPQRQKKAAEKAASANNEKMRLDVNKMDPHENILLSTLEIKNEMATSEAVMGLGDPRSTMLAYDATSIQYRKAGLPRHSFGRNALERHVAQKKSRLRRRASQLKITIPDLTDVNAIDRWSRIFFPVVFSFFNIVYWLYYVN
T5 sequence (A0A2H4NNI8 entry or part of it): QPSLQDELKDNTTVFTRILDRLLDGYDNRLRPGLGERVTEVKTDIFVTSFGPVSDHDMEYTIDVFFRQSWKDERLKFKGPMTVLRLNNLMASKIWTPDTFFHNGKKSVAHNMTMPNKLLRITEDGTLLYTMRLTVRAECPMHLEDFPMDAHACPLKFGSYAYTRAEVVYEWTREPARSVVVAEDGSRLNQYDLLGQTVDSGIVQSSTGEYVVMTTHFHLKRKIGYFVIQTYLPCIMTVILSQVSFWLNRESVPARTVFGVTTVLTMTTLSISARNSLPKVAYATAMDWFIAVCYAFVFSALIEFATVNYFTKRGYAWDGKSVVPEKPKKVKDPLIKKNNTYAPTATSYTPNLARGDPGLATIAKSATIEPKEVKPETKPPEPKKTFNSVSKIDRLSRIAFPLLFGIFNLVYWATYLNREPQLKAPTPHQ
Protocol: Capped cRNAs were synthesized (T7 mMessage mMachine kit, Ambion, Austin, TX, USA) from the linearized vectors containing the different subunits according to the manufacturer’s protocol. cRNA samples were stored at -80 °C until use. Oocytes were prepared and injected using standard procedures. Briefly, ovaries were harvested from Xenopus females that were deeply anesthetized by cooling down at 4 °C and with exposure to tricaine mesylate (3-aminobenzoic acid ethyl ester, methane sulfonate salt, 150 mg/l). The animal care of Xenopus laevis (accreditation de l’animalerie HiQScreen N° 171) and sacrifice was done according to the guidance set by the veterinary authorities of the canton of Geneva based on art.18 on the animal welfare legislation (LPA, art. 141 Ordonnance sur la protection des animaux, OPAn) with the authorization N° 27479 GE/15/16). Small pieces of ovary were isolated in a sterile Barth solution containing: NaCl (88 mM), KCl (1 mM), NaHCO3 (2.4 mM), HEPES (10 mM, pH 7.5), MgSO4·7H2O (0.82 mM), Ca(NO3)2·4H2O (0.33 mM), CaCl2·6H2O (0.41 mM), at pH 7.4, and supplemented with 20 μg/ml of kanamycin, 100 U/ml penicillin and 100 μg/ml streptomycin. Oocytes were microinjected using a Roboinject automatic injection system (Multi Channel Systems, Reutlingen, Germany) with 15–25 nl of cRNA solution (5–50 ng/μl) and then incubated at 18 °C in sterile filtered Barth solution. […]

Rm-GABA [8] = biological target: T3, Rm-GABA; assay: cell-based
Protocol: (§2) Capped cRNAs were synthesized (T7 mMessage mMachine kit, Ambion, Austin, TX, USA) from the linearized vectors containing the different subunits according to the manufacturer’s protocol. cRNA samples were stored at -80 °C until use. Oocytes were prepared and injected using standard procedures. Briefly, ovaries were harvested from Xenopus females that were deeply anesthetized by cooling down at 4 °C and with exposure to tricaine mesylate (3-aminobenzoic acid ethyl ester, methane sulfonate salt, 150 mg/l). The animal care of Xenopus laevis (accreditation de l’animalerie HiQScreen N° 171) and sacrifice was done according to the guidance set by the veterinary authorities of the canton of Geneva based on art.18 on the animal welfare legislation (LPA, art. 141 Ordonnance sur la protection des animaux, OPAn) with the authorization N° 27479 GE/15/16). Small pieces of ovary were isolated in a sterile Barth solution containing: NaCl (88 mM), KCl (1 mM), NaHCO3 (2.4 mM), HEPES (10 mM, pH 7.5), MgSO4·7H2O (0.82 mM), Ca(NO3)2·4H2O (0.33 mM), CaCl2·6H2O (0.41 mM), at pH 7.4, and supplemented with 20 μg/ml of kanamycin, 100 U/ml penicillin and 100 μg/ml streptomycin. Oocytes were microinjected using a Roboinject automatic injection system (Multi Channel Systems, Reutlingen, Germany) with 15–25 nl of cRNA solution (5–50 ng/μl) and then incubated at 18 °C in sterile filtered Barth solution. Recordings were made 1–6 days post-cRNA injection.
(§3) . In experiments in which the channel was challenged several times by GABA, enough time was allowed between applications for the channel to recover from desensitization. […]; 10 μM for DmS-GABA and DmR2-GABA; 50 μM for Rm-GABA; and 500 μM for Ls-GABA1). The agonist and the drug were then washed off for 15 s and the oocyte exposed again to the same drug concentration for 15 s before increasing to the next concentration.
(§4) . (1) and normalized to the fitted maximal current amplitude. […] . Table 1 and Additional file 3: Figure S1f). The Hill coefficients were higher than 1 for the five receptors (Table 1) indicating the presence of more than one agonist binding site per receptor. These values were obtained from peak current amplitudes. […]; Table 1 and Additional file 3: Figure S1f).

Ls-GABA1 [9] = biological target: T4, Ls-GABA1; assay: cell-based
Protocol: as §2, §3, §4

DmS-GABA receptor [10] = biological target: T2, DmS-GABA receptor; assay: GABA concentration-response relationships for DmS-GABA in absence and presence of lotilaner; type: cell-based; design: expressed in transfected cells; host or cells: Xenopus laevis oocytes injected with in vitro-transcribed capped cRNA (gene synthesised at Genewiz, pT7-TS vector); conditions: normalized to initial 100 μM GABA application
Text: Statistical comparisons were done using unpaired Student’s t test.

[11] = biological target: T1, DmS-GABA (wild type GABACl, RDLac); assay: GABA concentration-activation, two-electrode voltage clamp on Xenopus oocytes expressing DmS-GABA; type: cell-based; conditions: GABA concentration-activation curve
Protocol: as §2, with “The animal care of Xenopus laevis (accreditation de l’animalerie HiQScreen N° 171) and sacrifice was done according to the guidance set by the veterinary authorities of the canton of Geneva based on art.18 on the animal welfare legislation (LPA, art. 141 Ordonnance sur la protection des animaux, OPAn) with the authorization N° 27479 GE/15/16).” left out
as §1
(1) and normalized to the fitted maximal current amplitude.

Cl-GABAA α1β2γ2 [12] = biological target: T5, Cl-GABAA α1β2γ2; assay: Antagonist cumulative pre-application concentration-inhibition, TEVC on oocytes expressing Cl-GABAA α1β2γ2; type: cell-based
M. domestica GABACls = test system: M. domestica GABACls; design: method as in PMID 19944072; conditions: cited from earlier work
R. microplus GABACls = test system: R. microplus GABACls; design: method as in PMID 24365472; conditions: cited from earlier work

Cc1cc(C2=NO[C@](c3cc(Cl)c(Cl)c(Cl)c3)(C(F)(F)F)C2)sc1C(=O)NCC(=O)NCC(F)(F)F [AHC-2229544]
nH (Hill coefficient) ([1]; DmS-GABA): -0.30 ± 0.03
inhibition of the GABA-induced current ([1]; DmS-GABA, up to 0.3 μM): no inhibition
IC50 ([1]; read-out: IC50): 959 ± 268 nM
slight decrease in both peaks and tails currents (DmS-GABA receptor [2]): < 10%
less biological activity than the S-enantiomer [3]: 100 ×

ClC1=C(Cl)[C@]2(Cl)[C@@H]3[C@@H]4C[C@@H]([C@H]5O[C@@H]45)[C@@H]3[C@@]1(Cl)C2(Cl)Cl [Dieldrin, dieldrin, reference compound]
IC50 [1]: 4170 ± 920 nM
nH (Hill coefficient) ([1]; DmS-GABA): -0.45 ± 0.05

N#Cc1nn(-c2c(Cl)cc(C(F)(F)F)cc2Cl)c(N)c1[S+]([O-])C(F)(F)F (stereo not drawn) [Fipronil, fipronil, reference compound]
IC50 (Rm-GABA [4]): 25.6 ± 2.25 nM
nH (Hill coefficient) (Rm-GABA [4]): -0.56 ± 0.03
IC50 [1]: 27.6 ± 1.71 nM
nH (Hill coefficient) ([1]; DmS-GABA): -0.85 ± 0.04
loss of potency [5]: 18 fold
IC50 (Ls-GABA1 [6]): 165 ± 11.8 nM
nH (Hill coefficient) (Ls-GABA1 [6]; Ls-GABA1): -0.78 ± 0.04

NCCCC(=O)O [GABA, γ-aminobutyric acid]
EC50 (Cl-GABAA α1β2γ2 [7]; EC50 (μM), natural agonist GABA, ± SEM): 1.8 ± 0.14 µM
nH (Hill coefficient) (Cl-GABAA α1β2γ2 [7]; GABA concentration-activation curve): 1.31 ± 0.12
EC50 (Rm-GABA [8]): 50000 ± 760 nM
nH (Hill coefficient) (Rm-GABA [8]; Rm-GABA, GABA concentration-activation curve): 2.27 ± 0.19
EC50 (Ls-GABA1 [9]): 393000 ± 11100 nM
nH (Hill coefficient) (Ls-GABA1 [9]; Ls-GABA1, GABA concentration-activation curve): 1.35 ± 0.04
GABA Rmax (DmS-GABA receptor [10]; GABA alone): 97.706 ± 2.45%
nH (Hill coefficient) [11]: 1.57 ± 0.15

Cc1cc(C2=NO[C@@](c3cc(Cl)c(Cl)c(Cl)c3)(C(F)(F)F)C2)sc1C(=O)NCC(=O)NCC(F)(F)F [Lotilaner, lotilaner]
IC50 (Rm-GABA [4]): 36.8 ± 4.39 nM
nH (Hill coefficient) (Rm-GABA [4]): -0.47 ± 0.03
IC50 (Cl-GABAA α1β2γ2 [12]): > 10000 nM
nH (Hill coefficient) (Cl-GABAA α1β2γ2 [12]; Cl-GABAA α1β2γ2, concentration-inhibition curve): -0.09 ± 0.02
inhibitory effect / activity on dog GABAA receptor (Cl-GABAA α1β2γ2 [12]; Cl-GABAA α1β2γ2, up to the highest dose tested, 10 μM): no activity; also recorded: No obvious inhibitory effect
GABA current inhibition ([1]; DmS-GABA, GABA 10 μM, lotilaner concentrations > 1 μM): almost complete GABA current inhibition
nH (Hill coefficient) ([1]; DmS-GABA): -0.64 ± 0.03
IC50 ([1]; read-out: IC50): 23.8 ± 1.87 nM
GABA Rmax in presence of 0.1 μM lotilaner (DmS-GABA receptor [10]; lotilaner 0.1 μM): 50.98 ± 0.47%
GABA Rmax in presence of 1 μM lotilaner (DmS-GABA receptor [10]; lotilaner 1 μM): 13.65 ± 1.12%
IC50 (Ls-GABA1 [6]): 52.4 ± 4.54 nM
fold lower IC50 value compared to fipronil (Ls-GABA1 [6]; Ls-GABA1): 3 fold
nH (Hill coefficient) (Ls-GABA1 [6]; Ls-GABA1): -0.75 ± 0.04
potentiation of peak current at first co-application (DmS-GABA receptor [2]; on average): > 30%
potentiation of tail current at first co-application (DmS-GABA receptor [2]; on average): > 10%

Cc1cc(C2=NOC(c3cc(Cl)cc(Cl)c3)(C(F)(F)F)C2)ccc1C(=O)NCC(=O)NCC(F)(F)F (stereo not drawn) [fluralaner]
higher inhibitor potency over fipronil (M. domestica GABACls): 5 fold
higher inhibitor potency over fipronil (R. microplus GABACls): 5 fold
